Results as given in US9643980B2, “Benzoxazepin oxazolidinone compounds and methods of use” (Genentech, Inc., priority 2015, dated 2017).
Like-named read-outs stand apart in the source and are kept apart here.

What was measured:
[1] = tested on: KPL4 cells (PI3Kα mutant H1047R); assay: In vitro cell viability assay (Cell Titer-Glo), KPL4
[2] = tested on: MCF7 cells (PI3Kα mutant E545K); assay: In vitro cell viability assay (Cell Titer-Glo), MCF7
[3] = tested on: HCC1954 cells (PI3Kα mutant H1047R); assay: In vitro cell viability assay (Cell Titer-Glo), HCC1954
PI3Kδ = PI3Kδ (Homo sapiens, UniProt O00329); assay: PI3K binding assay (lipid kinase reaction, ADP-Glo), PI3K delta; format: biochemical; conditions: Table 2A; first value of cell (ADP-Glo, Example 901)
Chain of PI3Kδ (O00329 whole entry, canonical isoform): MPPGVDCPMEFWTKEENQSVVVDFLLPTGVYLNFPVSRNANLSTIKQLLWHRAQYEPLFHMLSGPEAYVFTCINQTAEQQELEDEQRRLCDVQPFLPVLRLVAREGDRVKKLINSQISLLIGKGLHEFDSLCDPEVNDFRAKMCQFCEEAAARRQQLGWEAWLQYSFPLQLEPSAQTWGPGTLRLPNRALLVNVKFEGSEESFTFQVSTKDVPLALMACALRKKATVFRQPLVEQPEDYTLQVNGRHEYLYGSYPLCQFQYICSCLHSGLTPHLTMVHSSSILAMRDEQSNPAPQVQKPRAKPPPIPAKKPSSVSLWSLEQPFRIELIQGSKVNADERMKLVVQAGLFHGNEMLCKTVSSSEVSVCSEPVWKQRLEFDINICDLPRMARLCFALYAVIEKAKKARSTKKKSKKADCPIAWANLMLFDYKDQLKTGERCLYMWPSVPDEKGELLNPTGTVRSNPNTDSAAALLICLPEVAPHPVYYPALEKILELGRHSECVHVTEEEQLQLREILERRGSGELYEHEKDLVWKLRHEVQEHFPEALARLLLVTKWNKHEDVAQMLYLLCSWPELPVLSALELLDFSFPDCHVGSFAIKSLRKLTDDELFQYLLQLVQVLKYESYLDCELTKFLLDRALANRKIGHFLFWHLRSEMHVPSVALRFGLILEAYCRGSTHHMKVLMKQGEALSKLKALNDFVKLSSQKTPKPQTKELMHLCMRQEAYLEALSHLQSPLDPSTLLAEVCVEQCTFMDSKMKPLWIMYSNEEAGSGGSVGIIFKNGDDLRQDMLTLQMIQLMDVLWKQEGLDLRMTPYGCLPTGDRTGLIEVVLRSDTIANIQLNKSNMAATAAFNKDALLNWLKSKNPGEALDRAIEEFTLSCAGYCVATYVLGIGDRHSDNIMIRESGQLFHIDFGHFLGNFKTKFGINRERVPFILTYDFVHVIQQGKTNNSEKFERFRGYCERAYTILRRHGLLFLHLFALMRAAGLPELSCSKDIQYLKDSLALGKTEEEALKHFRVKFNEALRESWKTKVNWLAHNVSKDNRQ
Chain of PI3Kδ (P27986 whole entry partner, canonical isoform): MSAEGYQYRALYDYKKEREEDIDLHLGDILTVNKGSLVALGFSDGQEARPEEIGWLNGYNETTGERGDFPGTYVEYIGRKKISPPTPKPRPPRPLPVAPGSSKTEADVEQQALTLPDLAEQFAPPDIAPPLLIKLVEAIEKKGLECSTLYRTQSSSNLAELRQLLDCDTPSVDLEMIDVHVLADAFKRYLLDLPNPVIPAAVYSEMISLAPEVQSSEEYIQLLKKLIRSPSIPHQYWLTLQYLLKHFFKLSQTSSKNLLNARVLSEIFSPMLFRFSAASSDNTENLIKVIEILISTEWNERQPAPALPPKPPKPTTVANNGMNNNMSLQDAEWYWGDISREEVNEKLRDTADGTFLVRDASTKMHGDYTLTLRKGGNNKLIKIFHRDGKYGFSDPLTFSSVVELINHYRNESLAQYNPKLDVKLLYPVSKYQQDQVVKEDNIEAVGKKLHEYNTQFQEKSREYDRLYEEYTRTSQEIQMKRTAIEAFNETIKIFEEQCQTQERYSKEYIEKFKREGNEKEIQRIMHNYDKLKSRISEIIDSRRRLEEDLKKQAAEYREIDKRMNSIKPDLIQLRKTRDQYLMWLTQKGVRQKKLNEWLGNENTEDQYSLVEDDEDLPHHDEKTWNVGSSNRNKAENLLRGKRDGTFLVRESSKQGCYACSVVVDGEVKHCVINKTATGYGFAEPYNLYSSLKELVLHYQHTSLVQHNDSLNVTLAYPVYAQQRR
Protocol: (§1) Reactions are carried out using the following conditions for each PI3K isoform as in Table 5.
(§2) All reactions are carried out at room temperature. […] The reaction is started by the addition of 2 μL ATP/MgCl2. The kinase reaction buffer contains 50 mM HEPES, 50 mM NaCl 3 mM MgCl2, 0.01% BSA, 1% DMSO, and enzyme and substrate concentrations as indicated in the above table. The reaction is stopped by the addition of 10 μL ADP-Glo reagent. Plates are read in a Perkin Elmer Envision system using luminescence mode. 10 point dose response curves are generated for each test compound. Ki values for each compound are determined using the Morrison Equation.

PI3Kα = PI3Kα (Homo sapiens, UniProt P42336); assay: PI3K binding assay (lipid kinase reaction, ADP-Glo), PI3K alpha; format: biochemical; conditions: for Ki: first value of cell (ADP-Glo, Example 901), read-out: PI3Kα Ki
Chain of PI3Kα (P42336 whole entry): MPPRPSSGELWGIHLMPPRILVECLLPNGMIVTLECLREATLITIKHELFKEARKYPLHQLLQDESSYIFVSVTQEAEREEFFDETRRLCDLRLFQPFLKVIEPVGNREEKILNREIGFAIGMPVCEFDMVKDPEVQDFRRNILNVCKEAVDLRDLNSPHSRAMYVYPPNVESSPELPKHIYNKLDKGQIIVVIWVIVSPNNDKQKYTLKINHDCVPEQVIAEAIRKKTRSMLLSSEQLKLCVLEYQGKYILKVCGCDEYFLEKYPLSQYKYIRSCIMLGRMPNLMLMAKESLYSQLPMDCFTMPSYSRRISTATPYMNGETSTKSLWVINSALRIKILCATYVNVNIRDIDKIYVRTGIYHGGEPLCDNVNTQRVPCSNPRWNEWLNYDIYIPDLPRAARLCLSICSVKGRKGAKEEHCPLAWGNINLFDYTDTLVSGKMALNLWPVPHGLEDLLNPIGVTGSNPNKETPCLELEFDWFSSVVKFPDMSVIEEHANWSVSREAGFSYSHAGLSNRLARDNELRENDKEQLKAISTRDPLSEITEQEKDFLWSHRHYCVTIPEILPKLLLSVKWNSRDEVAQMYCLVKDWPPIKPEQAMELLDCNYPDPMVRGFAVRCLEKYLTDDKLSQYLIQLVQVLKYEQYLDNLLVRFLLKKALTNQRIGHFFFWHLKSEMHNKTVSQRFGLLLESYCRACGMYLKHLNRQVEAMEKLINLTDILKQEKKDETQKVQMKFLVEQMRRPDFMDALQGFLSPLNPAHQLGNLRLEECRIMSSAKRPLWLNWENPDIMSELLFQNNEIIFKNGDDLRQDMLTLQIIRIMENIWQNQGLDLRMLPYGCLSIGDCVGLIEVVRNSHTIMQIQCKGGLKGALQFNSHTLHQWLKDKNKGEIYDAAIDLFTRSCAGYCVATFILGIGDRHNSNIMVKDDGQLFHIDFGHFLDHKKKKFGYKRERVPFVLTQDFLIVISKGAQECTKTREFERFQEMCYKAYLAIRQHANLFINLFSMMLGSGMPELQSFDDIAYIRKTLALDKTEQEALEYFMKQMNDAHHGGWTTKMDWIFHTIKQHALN
Chain of PI3Kα (P27986 whole entry partner): as the sequence (P27986 whole entry partner, canonical isoform) above
Protocol: as §1, §2

P-PRAS40 SW48(H1047R) = assay: Inhibition of P-PRAS40 in SW48 isogenic cells, PI3Kα mutant H1047R; format: cell-based; conditions: for EC50: Homo sapiens, SW48, 24 hours of compound treatment, read-out: P-PRAS40 SW48(H1047R) EC50; for Fold Selectivity for SW48(H1047R) vs. SW48(parental): EC50 potency ratio, p value (Student t-Test) given
Protocol: (§3) All statistics were performed using KaleidaGraph Software (version 4.1.3). A Student t-Test was performed using unpaired data with equal variance to compare activity against mutant cells and wild-type cells. P<0.05 is considered to be significant.
(§4) The following assays are intended for determining the cellular potency and mutant selectivity of small molecule PI3Kα inhibitors. […] Mutant selectivity of PI3Kα inhibitors is determined by EC50 potency ratios in the WT vs. E545K cell lines and WT vs. H1047R cell lines.
(§5) The three cell lines (WT, E545K, and H1047R) are plated and assayed in parallel. The following day, test compounds are serially diluted in dimethyl sulfoxide (DMSO) and added to cells (final DMSO concentration 0.5%). […] Cell lysates are added to assay plates pre-coated with antibodies against phosphorylated PRAS40. Phosphorylated PRAS40 in samples are allowed to bind to the capture antibodies overnight at 4° C. The detection antibody (anti-total PRAS40, labeled with an electrochemiluminescent SULFO-TAG) is added to the bound lysate and incubated for 1 hour at room temperature. The MSD Read Buffer is added such that when a voltage is applied to the plate electrodes, the labels bound to the electrode surface emit light. The MSD Sector Instrument measures the intensity of the light, and quantitatively measures the amount of phosphor-PRAS40 in the sample. Percent inhibition of PRAS40 phosphorylation by varying concentrations of test compounds is calculated relative to untreated controls. EC50 values are calculated using the 4 parameter logistic nonlinear regression dose-response model.

P-PRAS40 SW48(E545K) = assay: Inhibition of P-PRAS40 in SW48 isogenic cells, PI3Kα mutant E545K; format: cell-based; conditions: for EC50: Homo sapiens, SW48, 24 hours of compound treatment, read-out: P-PRAS40 SW48(E545K) EC50; for Fold Selectivity for SW48(E545K) vs. SW48(parental): EC50 potency ratio, p value (Student t-Test) given
Protocol: as §3, §4, §5

PI3Kβ [4] = target: T1, PI3Kβ (Homo sapiens, UniProt P42338); assay: PI3K binding assay (lipid kinase reaction, ADP-Glo), PI3K beta; format: biochemical; conditions: Table 2A; first value of cell (ADP-Glo, Example 901)
T1 sequence (P42338 whole entry): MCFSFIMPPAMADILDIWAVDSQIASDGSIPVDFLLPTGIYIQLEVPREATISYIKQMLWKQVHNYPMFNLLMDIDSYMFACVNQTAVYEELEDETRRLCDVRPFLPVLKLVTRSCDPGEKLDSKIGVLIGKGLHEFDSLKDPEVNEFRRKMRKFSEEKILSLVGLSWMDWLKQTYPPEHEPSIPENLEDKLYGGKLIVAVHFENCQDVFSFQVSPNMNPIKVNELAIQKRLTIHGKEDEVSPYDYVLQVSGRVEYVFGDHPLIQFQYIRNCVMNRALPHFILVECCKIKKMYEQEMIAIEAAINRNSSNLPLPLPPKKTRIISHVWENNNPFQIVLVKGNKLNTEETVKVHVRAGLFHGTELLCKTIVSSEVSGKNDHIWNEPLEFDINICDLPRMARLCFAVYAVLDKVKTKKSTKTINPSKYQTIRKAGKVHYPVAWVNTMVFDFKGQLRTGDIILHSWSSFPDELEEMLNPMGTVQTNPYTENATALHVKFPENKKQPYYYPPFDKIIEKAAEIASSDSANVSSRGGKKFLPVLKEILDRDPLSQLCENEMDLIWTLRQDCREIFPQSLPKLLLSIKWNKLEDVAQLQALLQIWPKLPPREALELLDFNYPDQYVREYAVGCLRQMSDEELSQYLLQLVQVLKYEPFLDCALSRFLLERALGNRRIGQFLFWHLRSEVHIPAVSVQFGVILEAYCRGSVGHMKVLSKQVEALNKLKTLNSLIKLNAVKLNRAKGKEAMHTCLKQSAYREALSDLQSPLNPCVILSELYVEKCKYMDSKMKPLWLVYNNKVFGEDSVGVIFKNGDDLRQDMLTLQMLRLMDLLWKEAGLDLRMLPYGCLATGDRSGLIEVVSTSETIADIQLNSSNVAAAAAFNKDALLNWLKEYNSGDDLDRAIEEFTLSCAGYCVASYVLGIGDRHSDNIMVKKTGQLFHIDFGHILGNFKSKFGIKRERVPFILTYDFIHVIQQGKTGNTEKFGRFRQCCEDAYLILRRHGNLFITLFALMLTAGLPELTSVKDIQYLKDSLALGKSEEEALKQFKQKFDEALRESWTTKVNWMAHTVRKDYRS
T1 sequence (P27986 whole entry partner): as the sequence (P27986 whole entry partner, canonical isoform) above
Protocol: as §1, §2

[5] = tested on: KPL4 breast cancer cell line (PI3Kα mutant H1047R) tumors; conditions: KPL4 xenograft in SCID mice, daily PO (oral) dosing; for Tolerability / treatment-related body weight loss: all doses; for Inhibition of KPL4 tumor growth in vivo: FIGS. 2A and 2B
Protocol: (70-72° F.) and 40-60% humidity.
Tumor weight may be estimated with the assumption that 1 mg is equivalent to 1 mm^3 of tumor volume.

P-PRAS40 SW48(parental) = assay: Inhibition of P-PRAS40 in SW48 isogenic cells, PI3Kα wild-type (parental); conditions: Homo sapiens, SW48, 24 h
PI3Kγ [6] = target: T2, PI3Kγ (Homo sapiens, UniProt P48736); assay: PI3K binding assay (lipid kinase reaction, ADP-Glo), PI3K gamma; format: biochemical; conditions: Table 2A; first value of cell (ADP-Glo, Example 901)
T2 sequence (P48736 whole entry): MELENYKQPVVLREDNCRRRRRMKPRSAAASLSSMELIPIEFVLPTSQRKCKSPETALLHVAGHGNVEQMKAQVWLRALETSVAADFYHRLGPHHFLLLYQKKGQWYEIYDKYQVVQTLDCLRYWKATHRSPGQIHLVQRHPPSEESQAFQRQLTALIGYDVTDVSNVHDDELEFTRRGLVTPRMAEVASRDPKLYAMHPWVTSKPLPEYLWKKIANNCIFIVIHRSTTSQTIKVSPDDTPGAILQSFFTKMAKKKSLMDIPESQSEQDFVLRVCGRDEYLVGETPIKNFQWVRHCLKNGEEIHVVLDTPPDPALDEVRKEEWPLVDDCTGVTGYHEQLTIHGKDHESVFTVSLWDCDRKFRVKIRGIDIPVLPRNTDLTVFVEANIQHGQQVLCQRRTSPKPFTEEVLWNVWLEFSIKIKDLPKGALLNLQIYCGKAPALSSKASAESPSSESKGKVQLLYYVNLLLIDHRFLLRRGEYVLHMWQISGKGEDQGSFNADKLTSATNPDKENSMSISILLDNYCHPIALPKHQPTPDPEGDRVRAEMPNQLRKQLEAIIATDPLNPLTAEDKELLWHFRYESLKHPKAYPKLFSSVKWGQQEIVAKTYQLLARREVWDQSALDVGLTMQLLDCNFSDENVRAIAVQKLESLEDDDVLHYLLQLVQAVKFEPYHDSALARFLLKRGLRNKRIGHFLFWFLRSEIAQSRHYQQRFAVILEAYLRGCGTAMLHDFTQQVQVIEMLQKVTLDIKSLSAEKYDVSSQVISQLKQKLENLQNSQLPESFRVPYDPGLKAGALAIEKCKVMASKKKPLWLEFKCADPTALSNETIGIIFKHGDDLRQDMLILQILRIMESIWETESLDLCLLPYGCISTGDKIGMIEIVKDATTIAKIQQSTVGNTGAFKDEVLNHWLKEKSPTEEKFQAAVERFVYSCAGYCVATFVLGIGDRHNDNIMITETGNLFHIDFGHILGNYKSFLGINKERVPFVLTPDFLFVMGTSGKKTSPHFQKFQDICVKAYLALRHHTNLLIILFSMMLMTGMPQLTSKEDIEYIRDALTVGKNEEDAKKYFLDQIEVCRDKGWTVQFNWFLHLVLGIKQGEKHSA
Protocol: as §1, §2

PI3Kβ [7] = target: T1, PI3Kβ; assay: Fluorescence polarization (FP) Ki, methods of Example 901 of U.S. Pat. No. 8,242,104, PI3K beta; conditions: read-out: PI3Kβ FP Ki; Table 2A; second value of cell after slash (FP)
[8] = tested on: locally advanced or metastatic solid tumors; conditions: phase Ia, single agent; all responses in patients with PIK3CA mutant tumors (Juric D. et al. AACR 2013); cited from earlier work
PI3Kγ [9] = target: T2, PI3Kγ; assay: Fluorescence polarization (FP) Ki, methods of Example 901 of U.S. Pat. No. 8,242,104, PI3K gamma; conditions: read-out: PI3Kγ FP Ki; Table 2A; second value of cell after slash (FP)
[10] = read-out: KPL4 antiproliferative EC50, 4 d incubation, Cell Titer-Glo
[11] = read-out: MCF7 antiproliferative EC50, 4 d incubation, Cell Titer-Glo
[12] = read-out: HCC1954 antiproliferative EC50, 4 d incubation, Cell Titer-Glo
[13] = KPL4, 96 h, read-out: KPL4 antiproliferative EC50 (μM)
[14] = Homo sapiens, MCF7, 96 h, read-out: MCF7 antiproliferative EC50 (μM)
[15] = Homo sapiens, HCC1954, 96 h, read-out: HCC1954 antiproliferative EC50 (μM)
[16] = Table 2A, selectivity ratio (fold)
[17] = read-out: P-PRAS40 SW48(parental) EC50 (nM)

EC50 [1, 10] [µM]	EC50 [2, 11] [µM]	EC50 [3, 12] [µM]	SMILES	EC50 [1, 13] [µM]	EC50 [2, 14] [µM]	EC50 [3, 15] [µM]	Ki (PI3Kδ) [nM]	Ki (PI3Kα; Table 2A) [nM]	Selectivity for PI3Kα vs. PI3K-β (PI3Kα; [16])	Selectivity for PI3Kα vs. PI3Kγ (PI3Kα; [16])	Selectivity for PI3Kα vs. PI3Kδ (PI3Kα; [16])	EC50 (P-PRAS40 SW48(H1047R); Table 3A, geometric mean) [nM]	Fold Selectivity for SW48(H1047R) vs. SW48(parental) (P-PRAS40 SW48(H1047R); Table 3A)	EC50 (P-PRAS40 SW48(E545K); Table 3A, geometric mean) [nM]	Fold Selectivity for SW48(E545K) vs. SW48(parental) (P-PRAS40 SW48(E545K); Table 3A)	Ki (PI3Kβ [4]) [nM]	Tolerability / treatment-related body weight loss [5]	Inhibition of KPL4 tumor growth in vivo [5]	EC50 (P-PRAS40 SW48(parental); [17]) [nM]	Ki (PI3Kγ [6]) [nM]	other results
0.21	0.12	0.75	CS(=O)(=O)N1CCN(Cc2cc3nc(-c4cccc5[nH]ncc45)nc(N4CCOCC4)c3s2)CC1 [pictilisib, 4-(2-(1H-indazol-4-yl)-6-((4-(methylsulfonyl)piperazin-1-yl)methyl)thieno[3,2-d]pyrimidin-4-yl)morpholine, reference compound]																		
			NC(=O)[C@@H]1CCCN1c1ccc2c(c1)OCCn1cc(N3C(=O)OC[C@H]3C(F)(F)F)nc1-2 [Compound 103, (S)-1-(2-((S)-2-Oxo-4-(trifluoromethyl)oxazolidin-3-yl)-5,6-dihydrobenzo[f]imidazo[1,2-d][1,4]oxazepin-9-yl)pyrrolidine-2-carboxamide]	0.02	0.38	0.15	2.28	0.155	698	290	15	7.1	2.6 (p = 0.002)	6.9	2.7 (p = 0.002)	108	well tolerated, with no treatment-related body weight loss observed	strongly inhibit the growth of KPL4 tumors in vivo in a dose-dependent manner	18.7	45	
			C[C@@H]1COC(=O)N1c1cn2c(n1)-c1ccc(N3CCC[C@H]3C(N)=O)cc1OCC2 [Compound 102, (S)-1-(2-((R)-4-Methyl-2-oxooxazolidin-3-yl)-5,6-dihydrobenzo[f]imidazo[1,2-d][1,4]oxazepin-9-yl)pyrrolidine-2-carboxamide]	0.05	0.1	0.48	13.3	0.56	745	366	24	16.4	2.4 (p < 0.001)	16.6	2.4 (p < 0.001)	418	well tolerated, with no treatment-related body weight loss observed	strongly inhibit the growth of KPL4 tumors in vivo in a dose-dependent manner	39.2	205	
0.02	0.02	0.04	Cc1nc(-c2cn3c(n2)-c2ccc(-c4cnn(C(C)(C)C(N)=O)c4)cc2OCC3)n(C(C)C)n1 [taselisib, 2-(4-(2-(1-isopropyl-3-methyl-1H-1,2,4-triazol-5-yl)-5,6-dihydrobenzo[f]imidazo[1,2-d][1,4]oxazepin-9-yl)-1H-pyrazol-1-yl)-2-methylpropanamide, reference compound]													53					Ki (PI3Kβ [7]): 9.1 nM; Partial responses (PRs) in enrolled patients [8]: 6/34; EC50 (P-PRAS40 SW48(H1047R); Table 3B comparator compounds): 4 nM; EC50 (P-PRAS40 SW48(E545K); Table 3B comparator compounds): 3.4 nM; Ki (PI3Kγ [9]): 0.97 nM; EC50 (P-PRAS40 SW48(parental); read-out: P-PRAS40 SW48(parental) EC50 (μM)): 7.9 nM
			C[C@H](Oc1ccc2c(c1)OCCn1cc(N3C(=O)OC[C@H]3C(F)(F)F)nc1-2)C(N)=O [Compound 105, (S)-2-((2-((S)-2-Oxo-4-(trifluoromethyl)oxazolidin-3-yl)-5,6-dihydrobenzo[f]imidazo[1,2-d][1,4]oxazepin-9-yl)oxy)propanamide]	0.008	0.05	0.005	42.2	2.75				53.6	3.7 (p = 0.008)	62.9	3.2 (p = 0.012)	661			199	255	Selectivity for PI3Kα vs. PI3K-β (PI3Kα): 241; Selectivity for PI3Kα vs. PI3Kγ (PI3Kα): 93; Selectivity for PI3Kα vs. PI3Kδ (PI3Kα): 15
